We go through two molecules from patent publication US20060003974A1, “Bile acid derived steroidal dimers with amphiphilic topology having antiproliferative activity” (COUNCIL OF SCIENTIFIC AND INDUSTRIAL RESEARCH, priority 2004, published 2006).

For data set [1], the system named is Human oral squamous carcinoma HEp-2. Description: MTT cell proliferation assay, HEp-2 cells. It is filed as cell-based. The conditions noted are these: for pIC50: Homo sapiens, 72 h treatment, MTT, read-out: IC50, reduction in proliferation. The protocol:
(§1) Antiproliferative Activity, Materials and methods: Human oral squamous carcinoma HEp-2 and human mammary adenocarcinoma (MCF-7) cell lines were obtained from National Centre for Cell Science, Pune, India. Cells were maintained as a monolayer in nutrient media MEM supplemented with heat inactivated fetal bovine serum (HyClone, Utah, USA) (10%), penicillin (100 U/ml) and streptomycin (100 μg/ml) (Invitrogen Life Technologies, MD, USA). The cells were grown at 37° C. in 5% CO2 and humidified air atmosphere. Stock solutions of all the compounds were prepared in DMSO at a concentration of 10-11.5 mM and afterwards diluted to the required concentration. The 3-(4,5-dimethylthiazol-2-yl)-2,5-diphenyltetrazolium bromide (MTT) was dissolved (1 mg/ml) in MEM (without phenol red) and filtered through a Millipore filter, 0.22 μm, before use. MTT Cell Proliferation Assay: (HEp-2) and (MCF-7) cells were plated at a density of 15,000 cells per well in 96 well tissue culture plates. Cells were allowed to adhere for 24 h at 37° C. and then treated with various concentrations (0, 0.1, 1.0, and 10 μM) of compounds dissolved in DMSO for additional 72 h, in triplicates. In the control wells nutrient medium with correspondent concentration of DMSO only was added to the cells. Thereafter cell proliferation was assessed by replacing treatment medium with 50 μL media containing 1 mg/mL MTT and incubated for 4 h at 37° C. Medium was then aspirated off and formazan crystals were solubilized in […] of isopropanol. The optical density was read on a microplate reader at 570 nm using 630 nm as a reference filter against a blank prepared from cell free wells. Absorbance given by cells treated with the carrier DMSO alone was taken as 100% cell growth. All assays were performed in triplicates. Antiproliferative Activity. The antiproliferative activity of both the compounds 2 and 3 were tested against human cancer cells, HEp-2 and MCF-7 which were grown in vitro. Compound (2) up to a concentration of 10 μM had no effect on the survival of HEp-2 and MCF-7 cells. […] IC50 value for compound (2) was between 2-3 μM.

For data set [2], the system named is human mammary adenocarcinoma (MCF-7). Description: MTT cell proliferation assay, MCF-7 cells. It is filed as cell-based. As to conditions: for pIC50: Homo sapiens, MCF7, 72 h treatment, MTT, read-out: IC50, reduction in proliferation. The protocol:
as §1

pIC50: −log10 of the molar value.

On to `C[C@H](CCC(=O)NCCNC(=O)CC[C@@H](C)[C@H]1CCC2C3C(C[C@H](O)[C@@]21C)[C@@]1(C)CC[C@@H](O)CC1C[C@H]3O)[C@H]1CCC2C3C(C[C@H](O)[C@@]21C)[C@@]1(C)CC[C@@H](O)CC1C[C@H]3O` (stereo partly drawn) [Compound 2, N^1,N^2-Ethylenediamine bis [cholic acid amide]], for which the melting point (usually the temperature of the solid-liquid transition) was 205 °C. In addition, the pIC50 in data set [1] is 5.52 to 5.70. Moreover, the “effect on survival of cells” value in data set [1] (up to a concentration of 10 μM) was “no effect”. In addition, the pIC50 in data set [2] was 5.52 to 5.70. The “effect on survival of cells” value in data set [2] (up to a concentration of 10 μM) is reported as “no effect”.

`C[C@H](CCC(=O)NCCNC(=O)CC[C@@H](C)[C@H]1CCC2C3CCC4C[C@H](O)CC[C@]4(C)C3C[C@H](O)[C@@]21C)[C@H]1CCC2C3CCC4C[C@H](O)CC[C@]4(C)C3C[C@H](O)[C@@]21C` (stereo partly drawn) [Compound 3, N^1,N^2-Ethylenediamine bis [deoxycholic acid amide]]: the melting point stood at 170 °C. The reduction in proliferation result in data set [1] (0.1-10 μM, 72 h) is recorded as “significant reduction”. Moreover, the pIC50 in data set [1] is 5.40 to 5.70. The “growth inhibition at 10 μM” value in data set [1] (at 10 μM concentration, 72 h) is listed as “totally inhibited”. Further, the reduction in proliferation result in data set [2] (0.1-10 μM, 72 h) was “significant reduction”. Moreover, the pIC50 in data set [2] is 5.40 to 5.70. In data set [2] (at 10 μM concentration, 72 h), the “growth inhibition at 10 μM” value was “totally inhibited”.
